Laboratory results published in PMC11744668, “2-Cyanopyrimidine-Containing Molecules for N-Terminal Selective Cyclization of Phage-Displayed Peptides” (ACS Chemical Biology, 2025).
“Also recorded” adds a separate entry of the source.

Tests used:
CA5C-sfGFP = assay: Cyclization of CA5C-sfGFP with linkers (LC-ESI-MS); details: 100 μM linker, PBS pH 7.4, 1 mM TCEP; for cyclization of CA5C-sfGFP: 3 h, 22 °C (RT), 500 nM protein; for cyclization of CA5C-sfGFP, optimized (in words): 16 h
Protocol: The designed organic linkers were tested for their ability to cyclize a CA5C peptide expressed as an N-terminal fusion to sfGFP (CA5C-sfGFP). Following reduction of the protein with 1 mM TCEP for 30 min, 100 μM compounds were reacted with the reduced CA5C-sfGFP for 3 h in PBS (pH 7.4). Following the reaction, the protein was analyzed via electrospray ionization mass spectrometry (ESI-MS) analysis to determine the desired adduct and any potential side reactions that occurred. […] This is likely due to the electron withdrawing effects of the nitrogen atoms adjacent to the nitrile in the 2-cyanopyrimidine derivatives. […] Following previously established Bayesian deconvolution of the mass spectra,[23] protein masses from each reaction (MW = 28,399 Da) corresponded well with that of the expected cyclic product (MW = 28,399 Da). […] This observed mass matches a TCEP-conjugated product resulting from a previously reported competing phospha-Michael addition of TCEP to the acrylamide moiety.[24] This product has a TCEP-functionalized linker that is nonreactive toward the internal cysteine (Figure 2A,B). Following these initial studies, we then further optimized the cyclization of CA5C-sfGFP using pCAmCP and mCAmCP by varying the reaction time, temperature, and concentration of linkers (Figure 2C).
Purified CA5C-sfGFP was diluted to 500 nM in PBS (pH 7.4) containing 1 mM TCEP and left to incubate for 30 min at 37 °C. Linker (100 μM final concentration) or equivalent amounts of DMSO were then added to the solution, and it reacted at varying times (3 or 16 h) and temperatures (22 or 37 °C). All initial tests for reactivity were performed at 22 °C for 3 h, while linkers pCAmCP and mCAmCP were optimized with the additional conditions. The reaction mixtures were then concentrated and exchanged to ammonium bicarbonate (50 mM, pH 8.0) using an Amicon centrifugal filter (MWCO: 10 kDa). Samples were analyzed using a QExactive Orbitrap LC–MS System (Thermo Fisher) and deconvoluted using UniDec software.[23]

[1] = Specificity of linker reaction with BCP peptide (nucleophilic residues, no internal cysteine); details: 500 µM BCP, 550 µM linker, 50 mM NH4HCO3, 1.2 mM TCEP, pH 7.5, 4 h
Excerpt: While pCAmCP and mCAmCP gave efficient cyclization of the peptide fusion of sfGFP, we looked to further investigate the specificity of the reaction using peptide kinetic assays. To do this, we first established reactivity of the compounds with a model peptide (CGK-5, Figures 3A and S16) that was composed of two cysteines flanking a region tuned for solubility in buffer (GGKGG) and with a tryptophan residue on the C-terminus for UV absorbance. […] To test the specificity of the reaction for the N-terminal cysteine, we synthesized a peptide analogue (CGK-5Abu, Figures 3D–F and S17) that contained 2-aminobutyric acid in place of the N-terminal cysteine. […] Since these reactions occurred at 500 μM of peptide to allow for analysis on the HPLC, we envision this difference will likely be exaggerated when using lower peptide/protein concentrations. Although it is unlikely at neutral pH, the chloroacetamide moiety can possibly react with nucleophilic amino acids other than cysteine. To defuse this concern, we designed a peptide containing a variety of possibly nucleophilic residues (serine, arginine, tyrosine, histidine, and lysine, but not an internal cysteine) adjacent to the N-terminal cysteine (BCP, Figure S18) and let the peptide react with pCAmCP or mCAmCP. […]

[2] = system: phages (12mer phagemid library); assay: Phage infectivity (toxicity) assay, colony-forming unit assay; details: 50–200 μM linker, 22 or 37 °C, 3 or 24 h, 1 mM TCEP; cfu assay, n = 3
Protocol: For all experiments, phages were quantified via a colony-forming unit assay. In this assay, serial dilutions of the phage solution were prepared in 2× YT media, and 10 μL of each dilution was added to 90 μL of log-phase E. coli ER2738. Following the addition of the phage dilutions, the culture was incubated at 37 °C for 45 min, and then 10 μL was spotted in triplicate onto agar selection plates containing either 100 μg/mL ampicillin and 10 μg/mL tetracycline, which were incubated at 37 °C overnight. The following day, colonies in each spot were counted, and this number was used to calculate the number of colony-forming units in the solution.
The purified 12mer phagemid library in binding buffer was incubated with 1 mM TCEP at 37 °C for 30 min. The reduced phages were then reacted with linkers (pCAmCP or mCAmCP) or DMSO equivalents at varying concentrations (50, 100, and 200 μM) and temperatures (22 or 37 °C) for varying times (3 or 24 h). Following incubation under the various conditions, the phage solutions were then titered by using the previously described colony-forming unit assay.

Row | Structure (SMILES) | cyclization of CA5C-sfGFP (CA5C-sfGFP) | cyclization of CA5C-sfGFP, optimized (in words) (CA5C-sfGFP) | specificity of chloroacetamide toward nucleophilic residues other than cysteine (in words) [1] | phage toxicity (in words) [2]
1 | N#Cc1ncc(NC(=O)CCl)cn1 [pCAmCP, 2-chloro-N-(2-cyanopyrimidin-5-yl)acetamide] | 50% | nearly complete cyclization of CA5C-sfGFP with no significant side reactions observed | the chloroacetamide was left intact, with the only observed side reaction being the addition of TCEP to the chloroacetamide | No toxicity was observed under any of the conditions tested; also recorded: without hindering infection
2 | N#Cc1nccc(NC(=O)CCl)n1 [mCAmCP, 2-chloro-N-(2-cyanopyrimidin-4-yl)acetamide] | ~70% | nearly complete cyclization of CA5C-sfGFP with no significant side reactions observed | the chloroacetamide was left intact, with the only observed side reaction being the addition of TCEP to the chloroacetamide | No toxicity was observed under any of the conditions tested; also recorded: without hindering infection
